Patent US20240165226A1, “COMBINATION TREATMENT OF CD38-EXPRESSING TUMORS” (GENMAB A/S, priority 2006, published 2024)
Entries after “also recorded” stand apart in the source; their conditions may differ. Each block holds one molecule with its values, some of them ahead of it.

How the values were obtained:
fresh MM tumor cells = test: Binding to fresh multiple myeloma tumor cells by flow cytometry; design: species or system human; conditions: for binding to MM cells: in words
Description: Fresh MM tumor cells were obtained from Dr. Lokhorst (University Medical Center Utrecht, Utrecht, The Netherlands. Tumor cells were isolated from bone marrow of multiple myeloma patients by Ficoll (Bio Whittaker; lymphocyte separation medium, cat 17-829E) gradient centrifugation. After harvesting and counting, MM cells (100,000 cells/well) were resuspended with 25 μl FITC-labeled CD38-specific antibodies and 25 μl CD138. After incubation (4° C., 30 min), cells were washed in PBS-BSA and PE-labeled goat-anti-mouse IgG (1:200; Jackson ImmunoResearch Europe Ltd. Soham, UK) was added. After incubation (4° C., 30 min) and washing of the cells in PBS-BSA, fluorescence was measured by flow cytometry.

Daudi-luc cells [1] = test: ADCC (51Cr release) of Daudi-luc cells; format: cell-based; conditions: for lysis of Daudi cells by ADCC: in words
Description: (§1) Daudi-luc cells, fresh multiple myeloma tumor cells, fresh Plasma Cell Leukemia tumor cells and JK6L and AMO-1 multiple myeloma cells were collected (5×10^6 cells) in RPMI^++ (RPMI 1640 culture medium supplemented with 10% cosmic calf serum (HyClone, Logan, UT, USA)), to which 100 μCi ^51Cr (Chromium-51; Amersham Biosciences Europe GmbH, Roosendaal, The Netherlands) was added, and the mixture was incubated in a 37° C. water bath for 1 hr. After washing of the cells (twice in PBS, 1500 rpm, 5 min), the cells were resuspended in RPMI^++ and counted by trypan blue exclusion. Cells were brought at concentration of 1×10^5 cells/ml.
(§2) Fresh peripheral blood mononuclear cells (healthy volunteers, UMC Utrecht, Utrecht, The Netherlands) were isolated from 40 ml of heparin blood by Ficoll (Bio Whittaker; lymphocyte separation medium, cat 17-829E) according to the manufacturer's instructions. After resuspension of cells in RPMI^++, cells were counted by trypan blue exclusion and brought at concentration of 1×10^7 cells/ml.
50 μl of ^51Cr-labeled targets cells were pipetted into 96-well plates, and 50 μl of antibody was added, diluted in RPMI^++ (final concentrations 10, 1, 0.1, 0.01 μg/ml). Cells were incubated (RT, 15 min), and 50 μl effector cells were added, resulting in an effector to target ratio of 100:1 (for determination of maximal lysis, 100 μl 5% Triton-X100 was added instead of effector cells; for determination of spontaneous lysis, 50 μl target cells and 100 μl RPMI++ were used). Cells were spun down (500 rpm, 5 min), and incubated (37° C., 5% CO2, 4 hr). After spinning down cells (1500 rpm, 5 min), 100 μl of supernatant was harvested into micronic tubes, and counted in gamma counter. The percentage specific lysis was calculated as follows:
(cpm sample−cpm target cells only)/(cpm maximal lysis−cpm target cells only)
wherein cpm is counts per minute.

[2] = system: fresh multiple myeloma tumor cells; test: ADCC (51Cr release) of fresh multiple myeloma tumor cells; format: cell-based, human; conditions: in words
Description: as §1, §2
50 μl of ^51Cr-labeled targets cells were pipetted into 96-well plates, and 50 μl of antibody was added, diluted in RPMI^++ (final concentrations 10, 1, 0.1, 0.01 μg/ml). […] After spinning down cells (1500 rpm, 5 min), 100 μl of supernatant was harvested into micronic tubes, and counted in gamma counter. The percentage specific lysis was calculated as follows: […]

Daudi-luc cells [3] = test: Complement-dependent cytotoxicity of Daudi-luc cells; format: cell-based; conditions: for CDC-mediated lysis of Daudi-luc cells: in words
Description: After harvesting and counting of Daudi-luc cells, the viability of the cells should be ≥90%. After washing (PBS), cells are resuspended at 2.0×10^6 cells/ml in RPMI-B (RPMI supplemented with 1% BSA). Thereafter, cells are put in 96-well round-bottom plates at 1×10^5 cells/well (50 μl/well). Then, 50 μl antibodies is added to the wells (final concentration range between 0-100 μg/ml (three-fold dilutions in RPMI-B)). After incubation (RT, 15 min), 11 μl of pooled human serum (pool of 18 healthy donors) was added to each well (37° ° C., 45 min). Wells were resuspended once and 120 μl was transferred to FACS tubes (Greiner). Then, 10 μl propidium iodide (PI; Sigma-Aldrich Chemie B.V.) was added (10 μg/ml solution) to this suspension. Lysis was detected by flow cytometry (FACScalibur™, Becton Dickinson, San Diego, CA, USA) by measurement of the percentage of dead cells (corresponds to PI-positive cells).

CHO-CD38 cells = test: Complement-dependent cytotoxicity of CHO-CD38 cells; format: cell-based; conditions: for CDC-mediated lysis of CHO-CD38 cells: in words
PBMCs = test: Induction of release of IFN-γ by PBMC; format: cell-based, human; conditions: 20 μg/ml antibody and 1 μg/ml OKT-3, 9 donors
Description: -003, -005 and -024 were tested in an assay as described in Ausiello et al., Tissue antigens 56, 538-547 (2000). Briefly, PBMCs were cultured at 1×10^6 cells/well in 48-well plates in the presence of 20 μg/ml of antibodies and 1 μg/ml OKT-3 (Sanquin, Amsterdam, The Netherlands) in 500 μl RPMI^++. After an O/N incubation at 37° C., supernatant was harvested and stored at −20° C. The IFN-γ concentration was assessed by ELISA (IFN-γ ELISA kit, U-CyTech Biosciences, Utrecht, The Netherlands) according to the manufacturer's instructions. Data are shown mean concentration in pg/ml (±SEM) from 9 donors.

[4] = target: T1, His-tagged extracellular domain of human CD38 (Homo sapiens, UniProt P28907); test: Enzymatic activity of recombinant CD38 (cGDPR production); format: biochemical; conditions: for cGDPribose production / reduced production of cGDPR: after 90 minutes; for inhibitory effect on the production of cGDPR: recombinant His-CD38
T1 construct: poly-His-tag (N); made in house; secreted into culture supernatant
Description: The enzymatic activity of human CD38 was measured in an assay essentially as described in Graeff et al., J. Biol. Chem. 269, 30260-30267 (1994). Briefly, substrate NGD^+ (80 μM) was incubated with CD38 (0.6 μg/ml His-tagged extracellular domain of human CD38, see Example 3 regarding purification of His-CD38) in a buffer containing 20 mM Tris-HCl, pH 7.0. The production of cGDPR can be monitored spectrophotometrically at the emission wavelength of 410 nm (excitation at 300 nm). In this example an excitation filter of 340±60 nm and an emission filter of 430±8 nm was used.
To test the effect of -003, -005 and -024 on the enzymatic activity of CD38, recombinant His-CD38 protein was pre-incubated for 15 min at room temperature with various concentrations (30, 3, 0.3 and 0.03 μg/ml) of the different antibodies before adding the substrate NGD^+. The production of cyclic GDP-ribose (cGDPR) was recorded at different time points after addition of […] (3, 6, 9, 12, 30, 45, 60, 75 and 90 min).

[5] = CDC, Daudi-luc cells (n = 2), Table 10
[6] = CDC, CHO-CD38 cells (n = 2), Table 10

Molecule: -005: human monoclonal IgG1 anti-CD38 antibody, VL region SEQ ID No:12 and VH region SEQ ID No:17
EC50 MM cells (fresh MM tumor cells; binding, flow cytometry): 0.04 µg/mL
binding to MM cells (fresh MM tumor cells): bind
Maximal lysis (%) (Daudi-luc cells [1]; ADCC, Daudi target cells, n=5): 49.2%
EC50 Daudi-luc (Daudi-luc cells [1]; ADCC, Table 2 first column, effector to target ratio 100:1): 0.0045 µg/mL
ADCC performance compared to rituximab (Daudi-luc cells [1]; Daudi-luc cells): slightly better than rituximab
lysis of Daudi cells by ADCC (Daudi-luc cells [1]): induce lysis by ADCC; also recorded: mediate lysis
ADCC of fresh multiple myeloma tumor cells [2]: ADCC is induced
maximum lysis (Daudi-luc cells [3]; CDC): ~60%
maximal lysis compared to TH3079 (Daudi-luc cells [3]; CDC of Daudi-luciferase cells): 2-3 times higher
% Max. lysis (Daudi-luc cells [3]; [5]): 70.5 ± 7.78%
EC50 (Daudi-luc cells [3]; [5]): 0.39 ± 0.00 µg/mL
EC50 Daudi-luc (Daudi-luc cells [3]; CDC, Table 3): 0.33 µg/mL
CDC-mediated lysis of Daudi-luc cells (Daudi-luc cells [3]): lysis of Daudi-luc cells is induced
% Max. lysis (CHO-CD38 cells; [6]): 76.5 ± 3.54%
EC50 (CHO-CD38 cells; [6]): 0.15 ± 0.007 µg/mL
EC50 CD38-CHO (CHO-CD38 cells; CDC, Table 3): 0.14 µg/mL
CDC-mediated lysis of CHO-CD38 cells (CHO-CD38 cells): lysis is induced; also recorded: induce CDC-mediated lysis
release of IFN-γ (PBMCs): does not induce release of detectable IFN-γ levels
cGDPribose production ([4]; 0.03 μg/ml antibody): 102 % of NGD control
cGDPribose production ([4]; 0.3 μg/ml antibody): 98 % of NGD control
cGDPribose production ([4]; 3 μg/ml antibody): 66 % of NGD control
reduced production of cGDPR ([4]; 3 μg/ml): 34%
cGDPribose production ([4]; 30 μg/ml antibody): 68 % of NGD control
reduced production of cGDPR ([4]; 30 μg/ml): 32%
inhibitory effect on the production of cGDPR [4]: pronounced inhibitory effect

cGDPribose production ([4]; 0.03 μg/ml antibody): 105 % of NGD control
cGDPribose production ([4]; 0.3 μg/ml antibody): 104 % of NGD control
cGDPribose production ([4]; 3 μg/ml antibody): 100 % of NGD control
cGDPribose production ([4]; 30 μg/ml antibody): 99 % of NGD control
inhibitory effect on the production of cGDPR [4]: No inhibitory effect
B1: -024: human monoclonal IgG1 anti-CD38 antibody, VL region SEQ ID No:22 and VH region SEQ ID No:27 (antibody, listed as Homo sapiens, V domains shown)
VH: EVQLVQSGAEVKKPGESLKISCKGSGYSFSNYWIGWVRQMPGKGLEWMGIIYPHDSDARYSPSFQGQVTFSADKSISTAYLQWSSLKASDTAMYYCARHVGWGSRYWYFDLWGRGTLVTVSS
VL: EIVLTQSPATLSLSPGERATLSCRASQSVSSYLAWYQQKPGQAPGLLIYDASNRASGIPARFSGSGSGTDFTLTISSLEPEDFAVYYCQQRSNWPLTFGGGTKVEIK
binding to MM cells (fresh MM tumor cells): bind
lysis of Daudi cells by ADCC (Daudi-luc cells [1]): induce lysis by ADCC
ADCC of fresh multiple myeloma tumor cells [2]: ADCC is induced
CDC-mediated lysis of Daudi-luc cells (Daudi-luc cells [3]): does not induce CDC
CDC-mediated lysis of CHO-CD38 cells (CHO-CD38 cells): lysis is induced
release of IFN-γ (PBMCs): did not induce release of significant IFN-γ levels
